Experimental data: patent publication US11453703B2, “Heterotandem bicyclic peptide complexes” (BicycleTX Limited, priority 2018, dated 2022)
pEC50: −log10 of the molar value.

Target: CD137 (Homo sapiens, UniProt Q07011)
Test: CD137 reporter assay, co-culture with PD-L1 expressing cell line RKO
Format: cell-based
Set-up: host or cells: Jurkat reporter cells
Settings: tumour target PD-L1, co-culture with RKO, 6 h; for fold induction: read-out: Fold Induction over Background
Method: Culture medium referred to as R1 media is prepared by adding 1% FBS to RPMI-1640 (component of Promega kit CS196005). Serial dilutions of test articles in R1 are prepared in a sterile 96 well-plate. Use 25 μl per well of test articles or R1 (as a background control) to designated wells in white cell culture plate. Tumour cells* are harvested and resuspended at a concentration of 400,000 cells/mL in R1 media. Twenty five (25) μL/well tumour cells are used in white cell culture plate. Jurkat cells (Promega kit CS196005, 0.5 mL) are thawed in the water bath and then added to 5 ml pre-warmed R1 medium. Twenty five (25) μL/well Jurkat cells are used in white cell culture plate. Incubate the cells and test articles for 6h at 37° C., 5% CO2. At the end of 6 h, add 75 μl/well Bio-Glo™ (Promega) and incubate for 10 min before reading luminescence in a plate reader (Clariostar, BMG). The fold change relative to cells (Jurkat cells+Cell line used in co-culture) is calculated and plotted in GraphPad Prism as log(agonist) vs response to determine EC50 (nM) and Fold Induction over background (Max)

Chain of CD137 (Q07011 24-255): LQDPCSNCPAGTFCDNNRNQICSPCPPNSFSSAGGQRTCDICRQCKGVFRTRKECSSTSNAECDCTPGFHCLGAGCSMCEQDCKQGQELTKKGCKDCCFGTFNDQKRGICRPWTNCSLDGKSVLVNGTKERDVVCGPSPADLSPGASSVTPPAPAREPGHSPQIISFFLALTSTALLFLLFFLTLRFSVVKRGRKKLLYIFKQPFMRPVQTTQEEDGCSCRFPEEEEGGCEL

| Structure (SMILES) | Fold Induction over Background [fold] | fold induction | pEC50 |
| --- | --- | --- | --- |
| CCCC[C@@H]1NC(=O)[C@H](Cc2ccc(O)cc2)NC(=O)[C@@H]2CCCN2C(=O)[C@H](CC(=O)O)NC(=O)[C@H](C)NC(=O)[C@H](Cc2ccccc2)NC(=O)[C@@H]2CSCCC(=O)N3CN(CN(C3)C(=O)CCSC[C@@H](C(=O)N[C@@H](C)C(N)=O)NC1=O)C(=O)CCSC[C@H](NC(C)=O)C(=O)N[C@@H](CC(C)(C)C)C(=O)N1CCC[C@H]1C(=O)N[C@@H](CCCCNC(=O)CCOCCOCCOCCOCCOCCOCCOCCOCCOCCOCCOCCOCCn1cc(CCC(=O)NCCCC[C@@H]3NC(=O)[C@H](CCC(N)=O)NC(=O)[C@@H]4CSCCC(=O)N5CN(CN(C5)C(=O)CCSC[C@@H](C(=O)N5CCC[C@H]5C(=O)N[C@@H](CO)C(=O)N[C@@H](Cc5c[nH]cn5)C(N)=O)NC(=O)[C@H](CC(C)C)NC(=O)[C@H](Cc5c[nH]cn5)NC(=O)[C@H](CC(C)C)NC3=O)C(=O)CCSC[C@H](NC(=O)[C@H](CCCCN)NC(=O)[C@H](CC(=O)O)NC(=O)[C@H](CO)NC(C)=O)C(=O)N[C@@H](CO)C(=O)N[C@@H](C)C(=O)NCC(=O)N[C@@H](Cc3c[nH]c5ccccc35)C(=O)N[C@@H](CC(C)C)C(=O)N[C@@H]([C@@H](C)O)C(=O)N[C@@H](CCSC)C(=O)N4)nn1)C(=O)N[C@H](C)C(=O)N1CCC[C@H]1C(=O)N[C@@H](Cc1ccc(O)cc1)C(=O)N2 [BCY11017] | 4 |  |  |
| CCCC[C@@H]1NC(=O)[C@H](Cc2ccc(O)cc2)NC(=O)[C@@H]2CCCN2C(=O)[C@H](CC(=O)O)NC(=O)[C@H](C)NC(=O)[C@H](Cc2ccccc2)NC(=O)[C@@H]2CSCCC(=O)N3CN(CN(C3)C(=O)CCSC[C@@H](C(=O)N[C@@H](C)C(N)=O)NC1=O)C(=O)CCSC[C@H](NC(C)=O)C(=O)N[C@@H](CC(C)(C)C)C(=O)N1CCC[C@H]1C(=O)N[C@@H](CCC(=O)O)C(=O)N[C@H](CCCCNC(=O)CCOCCOCCOCCOCCOCCOCCOCCOCCOCCOCCOCCOCCn1cc(CCC(=O)NCCCC[C@@H]3NC(=O)[C@H](CCC(N)=O)NC(=O)[C@@H]4CSCCC(=O)N5CN(CN(C5)C(=O)CCSC[C@@H](C(=O)N5CCC[C@H]5C(=O)N[C@@H](CO)C(=O)N[C@@H](Cc5c[nH]cn5)C(N)=O)NC(=O)[C@H](CC(C)C)NC(=O)[C@H](Cc5c[nH]cn5)NC(=O)[C@H](CC(C)C)NC3=O)C(=O)CCSC[C@H](NC(=O)[C@H](CCCCN)NC(=O)[C@H](CC(=O)O)NC(=O)[C@H](CO)NC(C)=O)C(=O)N[C@@H](CO)C(=O)N[C@@H](C)C(=O)NCC(=O)N[C@@H](Cc3c[nH]c5ccccc35)C(=O)N[C@@H](CC(C)C)C(=O)N[C@@H]([C@@H](C)O)C(=O)N[C@@H](CCSC)C(=O)N4)nn1)C(=O)N1CCC[C@H]1C(=O)N[C@@H](Cc1ccc(O)cc1)C(=O)N2 [BCY11018] | 7 |  |  |
| CCCC[C@@H]1NC(=O)[C@H](Cc2ccc(O)cc2)NC(=O)[C@@H]2CCCN2C(=O)[C@H](CC(=O)O)NC(=O)[C@H](C)NC(=O)[C@H](Cc2ccccc2)NC(=O)[C@@H]2CSCCC(=O)N3CN(CN(C3)C(=O)CCSC[C@@H](C(=O)N[C@@H](CNC(=O)CCOCCOCCOCCOCCOCCOCCOCCOCCOCCOCCOCCOCCn3cc(CCC(=O)NCCCC[C@@H]4NC(=O)[C@H](CCC(N)=O)NC(=O)[C@@H]5CSCCC(=O)N6CN(CN(C6)C(=O)CCSC[C@@H](C(=O)N6CCC[C@H]6C(=O)N[C@@H](CO)C(=O)N[C@@H](Cc6c[nH]cn6)C(N)=O)NC(=O)[C@H](CC(C)C)NC(=O)[C@H](Cc6c[nH]cn6)NC(=O)[C@H](CC(C)C)NC4=O)C(=O)CCSC[C@H](NC(=O)[C@H](CCCCN)NC(=O)[C@H](CC(=O)O)NC(=O)[C@H](CO)NC(C)=O)C(=O)N[C@@H](CO)C(=O)N[C@@H](C)C(=O)NCC(=O)N[C@@H](Cc4c[nH]c6ccccc46)C(=O)N[C@@H](CC(C)C)C(=O)N[C@@H]([C@@H](C)O)C(=O)N[C@@H](CCSC)C(=O)N5)nn3)C(N)=O)NC1=O)C(=O)CCSC[C@H](NC(C)=O)C(=O)N[C@@H](CC(C)(C)C)C(=O)N1CCC[C@H]1C(=O)N[C@@H](CCC(=O)O)C(=O)N[C@H](C)C(=O)N1CCC[C@H]1C(=O)N[C@@H](Cc1ccc(O)cc1)C(=O)N2 [BCY11019] |  | 6 |  |
| CCCC[C@@H]1NC(=O)[C@H](Cc2ccc(O)cc2)NC(=O)[C@@H]2CCCN2C(=O)[C@H](CC(=O)O)NC(=O)[C@H](C)NC(=O)[C@H](Cc2ccccc2)NC(=O)[C@@H]2CSCCC(=O)N3CN(CN(C3)C(=O)CCSC[C@@H](C(=O)N[C@@H](C)C(N)=O)NC1=O)C(=O)CCSC[C@H](NC(C)=O)C(=O)N[C@@H](CC(C)(C)C)C(=O)N1CCC[C@H]1C(=O)N[C@@H](CCCCNC(=O)Cn1cc(CCC(=O)NCCCC[C@@H]3NC(=O)[C@H](CCC(N)=O)NC(=O)[C@@H]4CSCCC(=O)N5CN(CN(C5)C(=O)CCSC[C@@H](C(=O)N5CCC[C@H]5C(=O)N[C@@H](CO)C(=O)N[C@@H](Cc5c[nH]cn5)C(N)=O)NC(=O)[C@H](CC(C)C)NC(=O)[C@H](Cc5c[nH]cn5)NC(=O)[C@H](CC(C)C)NC3=O)C(=O)CCSC[C@H](NC(=O)[C@H](CCCCN)NC(=O)[C@H](CC(=O)O)NC(=O)[C@H](CO)NC(C)=O)C(=O)N[C@@H](CO)C(=O)N[C@@H](C)C(=O)NCC(=O)N[C@@H](Cc3c[nH]c5ccccc35)C(=O)N[C@@H](CC(C)C)C(=O)N[C@@H]([C@@H](C)O)C(=O)N[C@@H](CCSC)C(=O)N4)nn1)C(=O)N[C@H](C)C(=O)N1CCC[C@H]1C(=O)N[C@@H](Cc1ccc(O)cc1)C(=O)N2 [BCY11376] | 9 |  |  |
| CCCC[C@@H]1NC(=O)[C@H](Cc2ccc(O)cc2)NC(=O)[C@@H]2CCCN2C(=O)[C@H](CC(=O)O)NC(=O)[C@H](C)NC(=O)[C@H](Cc2ccccc2)NC(=O)[C@@H]2CSCCC(=O)N3CN(CN(C3)C(=O)CCSC[C@@H](C(=O)N[C@@H](C)C(N)=O)NC1=O)C(=O)CCSC[C@H](NC(C)=O)C(=O)N[C@@H](CC(C)(C)C)C(=O)N1CCC[C@H]1C(=O)N[C@@H](CCC(=O)O)C(=O)N[C@H](CCCCNC(=O)Cn1cc(CCC(=O)NCCCC[C@@H]3NC(=O)[C@H](CCC(N)=O)NC(=O)[C@@H]4CSCCC(=O)N5CN(CN(C5)C(=O)CCSC[C@@H](C(=O)N5CCC[C@H]5C(=O)N[C@@H](CO)C(=O)N[C@@H](Cc5c[nH]cn5)C(N)=O)NC(=O)[C@H](CC(C)C)NC(=O)[C@H](Cc5c[nH]cn5)NC(=O)[C@H](CC(C)C)NC3=O)C(=O)CCSC[C@H](NC(=O)[C@H](CCCCN)NC(=O)[C@H](CC(=O)O)NC(=O)[C@H](CO)NC(C)=O)C(=O)N[C@@H](CO)C(=O)N[C@@H](C)C(=O)NCC(=O)N[C@@H](Cc3c[nH]c5ccccc35)C(=O)N[C@@H](CC(C)C)C(=O)N[C@@H]([C@@H](C)O)C(=O)N[C@@H](CCSC)C(=O)N4)nn1)C(=O)N1CCC[C@H]1C(=O)N[C@@H](Cc1ccc(O)cc1)C(=O)N2 [BCY11377] | 6 |  |  |
| CCCC[C@@H]1NC(=O)[C@H](Cc2ccc(O)cc2)NC(=O)[C@@H]2CCCN2C(=O)[C@H](CC(=O)O)NC(=O)[C@H](C)NC(=O)[C@H](Cc2ccccc2)NC(=O)[C@@H]2CSCCC(=O)N3CN(CN(C3)C(=O)CCSC[C@@H](C(=O)N[C@@H](CNC(=O)Cn3cc(CCC(=O)NCCCC[C@@H]4NC(=O)[C@H](CCC(N)=O)NC(=O)[C@@H]5CSCCC(=O)N6CN(CN(C6)C(=O)CCSC[C@@H](C(=O)N6CCC[C@H]6C(=O)N[C@@H](CO)C(=O)N[C@@H](Cc6c[nH]cn6)C(N)=O)NC(=O)[C@H](CC(C)C)NC(=O)[C@H](Cc6c[nH]cn6)NC(=O)[C@H](CC(C)C)NC4=O)C(=O)CCSC[C@H](NC(=O)[C@H](CCCCN)NC(=O)[C@H](CC(=O)O)NC(=O)[C@H](CO)NC(C)=O)C(=O)N[C@@H](CO)C(=O)N[C@@H](C)C(=O)NCC(=O)N[C@@H](Cc4c[nH]c6ccccc46)C(=O)N[C@@H](CC(C)C)C(=O)N[C@@H]([C@@H](C)O)C(=O)N[C@@H](CCSC)C(=O)N5)nn3)C(N)=O)NC1=O)C(=O)CCSC[C@H](NC(C)=O)C(=O)N[C@@H](CC(C)(C)C)C(=O)N1CCC[C@H]1C(=O)N[C@@H](CCC(=O)O)C(=O)N[C@H](C)C(=O)N1CCC[C@H]1C(=O)N[C@@H](Cc1ccc(O)cc1)C(=O)N2 [BCY11378] | 3 |  | 7.10 |
| CCCC[C@@H]1NC(=O)[C@H](Cc2ccc(O)cc2)NC(=O)[C@@H]2CCCN2C(=O)[C@H](CC(=O)O)NC(=O)[C@H](C)NC(=O)[C@H](Cc2ccccc2)NC(=O)[C@@H]2CSCCC(=O)N3CN(CN(C3)C(=O)CCSC[C@@H](C(=O)N[C@@H](C)C(N)=O)NC1=O)C(=O)CCSC[C@H](NC(C)=O)C(=O)N[C@@H](CC(C)(C)C)C(=O)N1CCC[C@H]1C(=O)N[C@@H](CCCCNC(=O)CCOCCOCCOCCOCCOCCn1cc(CCC(=O)NCCCC[C@@H]3NC(=O)[C@H](CCC(N)=O)NC(=O)[C@@H]4CSCCC(=O)N5CN(CN(C5)C(=O)CCSC[C@@H](C(=O)N5CCC[C@H]5C(=O)N[C@@H](CO)C(=O)N[C@@H](Cc5c[nH]cn5)C(N)=O)NC(=O)[C@H](CC(C)C)NC(=O)[C@H](Cc5c[nH]cn5)NC(=O)[C@H](CC(C)C)NC3=O)C(=O)CCSC[C@H](NC(=O)[C@H](CCCCN)NC(=O)[C@H](CC(=O)O)NC(=O)[C@H](CO)NC(C)=O)C(=O)N[C@@H](CO)C(=O)N[C@@H](C)C(=O)NCC(=O)N[C@@H](Cc3c[nH]c5ccccc35)C(=O)N[C@@H](CC(C)C)C(=O)N[C@@H]([C@@H](C)O)C(=O)N[C@@H](CCSC)C(=O)N4)nn1)C(=O)N[C@H](C)C(=O)N1CCC[C@H]1C(=O)N[C@@H](Cc1ccc(O)cc1)C(=O)N2 [BCY11379] |  | 6 |  |
